Assay results as given in patent publication US8853264B2, “Use of lignan compounds for treating or preventing inflammatory disease” (Newtree Industry Co., Ltd., priority 2005, dated 2014).

Key:
IL-4 secreting cells = test: Counting of IL-4 secreting cells in the lungs (ELISpot), asthma model; format: in vivo, C57BL/6 (B6) male mice; settings: oral 400 μg/g and 800 μg/g; vs vehicle (corn oil) group
Protocol: (§1) 5 μL of allergen, AP (aspergillus protease, 1 mg/mL, Sigma-Aldrich, St. Louis, Mo.) was mixed with 45 μL of OVA (chicken egg ovalbumin, 0.5 mg/mL, Sigma-Aldrich). After 3 intraperitoneal injections with 4-day intervals, asthma was induced by 2 intranasal challenges with 4-day interval. The intranasal challenge was performed under isoflurane inhalational anesthesia. Macelignan dissolved in corn oil was orally administered every day.
(§2) Within 24 hours after the last allergen challenge, the mouse was anesthetized by intraperitoneal injection of 0.1 mg/g sodium pentobarbital. After tracheal intubation, flexiVent (Scireq®, Montreal, Canada) was connected to maintain stable ventilation. Thereafter, striated muscle was relaxed by intravenous (IV) administration of 0.08 mg/kg pancuronium (Sigma-Aldrich). Following airway hypersensitivity test by IV administration of acetylcholine (Sigma-Aldrich), 1 mL of DPBS (Dulbecco's phosphate buffered saline) was injected twice into the intubation tube using a syringe for bronchioalveolar lavage. Thereafter, the chest was opened and the lungs were subjected to ELISpot assay. […]
When asthma is induced in a mouse, Th2 cells in the lungs increase. […] After addition of substrate dissolved in 0.6% low melting agarose followed by incubation at 4° C., spots were counted within 24 hours to count the number of IL-4 secreting cells in the lungs.

[1] = Airway hypersensitivity test, allergen-induced asthma; format: in vivo, C57BL/6 (B6) male mice; settings: oral administration in corn oil, every day; vs vehicle group; p<0.05
Protocol: as §1
as §2, with “lavage.” for “lavage. Thereafter, the chest was opened and the lungs were subjected to ELISpot assay.”
For airway hypersensitivity test, the mouse was anesthetized using sodium pentobarbital and, after tracheal intubation, flexiVent was connected to maintain stable ventilation. […] Immediately after IV administration of acetylcholine, airway resistance was measured 3 times by snapshot. The mean value was recorded as airway resistance.

glycoprotein (mucin) = test: Glycoprotein level in BAL fluid (ELISA), asthma model; format: in vivo, C57BL/6 (B6) male mice; settings: oral 400 μg/g and 800 μg/g
Protocol: as §1
Within 24 hours after the last allergen challenge, the mouse was anesthetized by intraperitoneal injection of 0.1 mg/g sodium pentobarbital. After tracheal intubation, flexiVent (Scireq®, Montreal, Canada) was connected to maintain stable ventilation. Thereafter, striated muscle was relaxed by intravenous (IV) administration of 0.08 mg/kg pancuronium (Sigma-Aldrich). […]
When asthma is induced, secretion of mucin increases in the airway. Glycoprotein ELISA was carried out to quantitate mucin in BAL fluid. […] After blocking, followed by treating with biotinylated jacalin and then with streptavidin-alkaline phosphatase, substrate was added and absorbance was measured at 405 nm Glycoprotein level in the BAL fluid was determined by comparing with the standard curve obtained using the standard solution.

IL-13 mRNA = IL-13 mRNA level in skin lesion (RT-PCR); format: in vivo, NC/Nga mice
Protocol: In order to induce atopic dermatitis, 100 mg of mite antigen cream was applied on the ear, occipital region and back of NC/Nga mouse (9 to 11 weeks old), except for the negative control group, 3 times a week, 2 hours after the application of 4% SDS solution. Three weeks later, it was observed whether atopic dermatitis was induced by checking skin rash, erythema, cornification, or the like. Atopic dermatitis was induced in all groups except for the negative control group. […] Transepidermal water loss (TEWL), skin hydration and erythema index were measured one day before the end of the test. […]
After the end of the experiment, skin tissue was isolated from the occipital region to the back of the mouse, immersed in liquid nitrogen, pulverized using a mortar, dissolved in 500 μL of TRIzol® (InvitrogenLife Technologies, USA), and then homogenized using a homogenizer in order to measure mRNA level of cytokines in skin lesion. […] After the centrifuge, the supernatant was discarded and the remaining pellets were washed 2 times with 100% ethanol, dried, and then subjected to RNA quantification by spectrophotometry. […]

COc1cc(C[C@H](C)[C@H](C)Cc2ccc3c(c2)OCO3)ccc1O (single isomer, unassigned) [macelignan]
IL-4 secreting cells in the lungs (IL-4 secreting cells): decreased IL-4 secreting cells
airway hypersensitivity [1]: statistically significant decrease of airway hypersensitivity
glycoprotein level in the BAL fluid (glycoprotein (mucin)): decreased glycoprotein level
IL-13 mRNA level in skin lesion (IL-13 mRNA; oral administration 50 and 150 mg/kg): statistically significant effect of decreasing IL-13 mRNA level
IL-13 mRNA level in skin lesion (IL-13 mRNA; topical application 20 and 60 mg/kg): effect of decreasing IL-13 mRNA level
